The values that follow come from article PMC5078025, “Necrosis-inducing peptide has the beneficial effect on killing tumor cells through neuropilin (NRP-1) targeting” (Oncotarget, 2016).

The test system of the test is CT26 cells. Put plainly: XTT cell viability / killing activity in CT26 cells. The conditions noted are these: CT26 cells in vitro, TU:MTDs 0 ~ 20 μM, 30 minutes. Format: cell-based. As for the experimental part: Figure 1 Identification of TU17:MTD as a tumor targeting peptide (A) Schematic diagram of the fusion peptides consisting of the tumor-homing motif, linker, and mitochondrial targeting domain (MTD). (B) Tumors were generated over 2 weeks after s.c. injection of CT26 cells into the backs of BALB/c mice. When tumor volumes reached palpable size, the indicated TU:MTDs (100 μl of 1 mM TU:MTDs) or PBS were administrated i.v. twice or three times. […] Arrows indicate the points of peptide injection. P values < 0.02 (control group vs TU17:MTD at day 5, 6, 7, 8, and 9) (C) HCT116, HeLa, A549, MCF-7, PC3, and BJAB cells were treated with TU17:MTD (0 ~ 20 μM) for 30 minutes, and cell viability was monitored using XTT assays. *P < 0.05 (D) Primary splenocytes and macrophages were treated with TU17:MTD (0 ~ 20 μM) for 30 minutes, and cell viability was monitored by XTT assay. *P < 0.05 (E) CT26 cells were treated with R8:MTD, TU17:MTD, TU17-2:MTD or TU17:MTD^4A (0 ~ 40 μM) for 4 hours, and cell viability was monitored by XTT assay. Results in C to E are expressed as means ± SD (triplicates), and are representative of at least two independent experiments. P values are for experimental groups versus controls and were calculated using Dunnett's t-test. *P < 0.05.
Figure 5 Anti-NRP-1 antibody blocks TU17:MTD-induced necrosis (A) CT26 cells (2 × 10^4 cells/cm^2) were treated with TU17:MTD-FAM (500 nM) peptide or TU17^mut:MTD (500 nM) peptide. […] The viability was measured by using the XTT assay. *P < 0.05, **P < 0.01. […] The percentage of FAM-positive cells (%) were determined (n = over 200 cells). *P < 0.05, ***P < 0.001.
Cells were cultured in 96 well plates (2 × 10^5) overnight and treated with TU:MTDs. Cell viabilities were assessed using a XTT-based colorimetric assay kit, according to the manufacturer's instructions. […]
Supplementary FigureS1: Killing activity of TU:MTDs in CT26 cells. CT26 cells were treated with TU:MTDs (0 ~ 20 μM) for 30 minutes, and cell viability was monitored using XTT assays. […]
A general note: Formazan colour is commonly taken as a measure of viable cells.

Bridge positions count the residues as written; N and C are the ends. Ends that are not written are not given here.

Turning to “CNGRCVSGCAGRCGGKLLNLISKLF [TU2:MTD, MTD peptide fused with tumor-homing motif, linear]”, the “morphological features of necrosis” value was “induced the typical morphological features of necrosis”.
Turning to “KLLNLISKLFCRGDKRLYDC (disulfide 11-20 (inferred)) [TU11:MTD]”, the “morphological features of necrosis” value was “induced the typical morphological features of necrosis”.
